Test results taken from ChEMBL document CHEMBL3407464, “Novel 5-HT6 receptor antagonists/D2 receptor partial agonists targeting behavioral and psychological symptoms of dementia” (Eur J Med Chem, 2015).
pEC50, pIC50, pKi: −log10 of the molar value. Converted amounts (≈) assume the structure as drawn.

Columns and labels:
[1] = molecular target: T1, Sodium-dependent serotonin transporter (Homo sapiens, UniProt P31645); assay: Displacement of [3H]imipramine from human SERT expressed in CHO cells at 1 uM; assay type: cell-based
Target sequence in this assay (P31645 whole entry, looked up): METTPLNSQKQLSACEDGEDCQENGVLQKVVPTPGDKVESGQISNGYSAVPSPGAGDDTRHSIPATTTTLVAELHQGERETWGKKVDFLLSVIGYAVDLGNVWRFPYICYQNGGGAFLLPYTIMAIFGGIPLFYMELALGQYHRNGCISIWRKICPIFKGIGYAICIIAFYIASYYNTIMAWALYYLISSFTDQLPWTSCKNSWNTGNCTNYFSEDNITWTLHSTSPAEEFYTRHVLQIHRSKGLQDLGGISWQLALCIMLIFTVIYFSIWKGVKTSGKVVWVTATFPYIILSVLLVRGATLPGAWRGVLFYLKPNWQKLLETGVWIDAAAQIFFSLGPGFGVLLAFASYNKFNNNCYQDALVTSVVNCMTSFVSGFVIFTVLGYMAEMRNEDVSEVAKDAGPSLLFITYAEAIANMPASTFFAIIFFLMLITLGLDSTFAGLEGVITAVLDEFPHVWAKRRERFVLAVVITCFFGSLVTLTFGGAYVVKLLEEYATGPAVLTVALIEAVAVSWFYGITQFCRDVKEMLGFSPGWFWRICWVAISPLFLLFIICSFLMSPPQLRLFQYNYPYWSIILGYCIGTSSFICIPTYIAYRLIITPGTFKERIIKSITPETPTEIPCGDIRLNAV

[2] = molecular target: T2, 5-hydroxytryptamine receptor 2A (Homo sapiens, UniProt P28223); assay: Displacement of [3H]ketanserin from human 5-HT2A receptor expressed in HEK-293 cells; assay type: cell-based, HEK293
[3] = molecular target: T3, D(3) dopamine receptor (Homo sapiens, UniProt P35462); assay: Displacement of [3H]methylspiperone from human dopamine D3 receptor expressed in CHO cells; assay type: cell-based
[4] = molecular target: D(4) dopamine receptor (Homo sapiens, UniProt P21917); assay: Displacement of [3H]methylspiperone from human dopamine D4 receptor expressed in CHO cells; assay type: cell-based
[5] = molecular target: T4, Histamine H1 receptor (Homo sapiens, UniProt P35367); assay: biochemical; assay type: cell-based, HEK293
[6] = molecular target: Muscarinic acetylcholine receptor M1 (Homo sapiens, UniProt P11229); assay: biochemical; assay type: cell-based, CHO
[7] = molecular target: D(4) dopamine receptor (Homo sapiens) (UniProt P21917); assay: Displacement of [3H]methylspiperone from human dopamine D4 receptor expressed in CHO cells at 1 uM; assay type: cell-based
[8] = molecular target: T5, 5-hydroxytryptamine receptor 7 (Homo sapiens, UniProt P34969); assay: Displacement of [3H]LSD from human 5-HT7 receptor expressed in CHO cells at 1 uM; assay type: cell-based
[9] = molecular target: Alpha-2C adrenergic receptor (Homo sapiens) (UniProt P18825); assay: Displacement of [3H]RX-821002 from human adrenergic alpha2C receptor expressed in CHO cells at 1 uM; assay type: cell-based
[10] = molecular target: T4, Histamine H1 receptor; assay: Displacement of [3H]pyrilamine from human histamine H1 receptor expressed in HEK-293 cells at 1 uM; assay type: cell-based; conditions: HEK293
[11] = tested on: Rattus norvegicus; assay: Anti-depressant-like activity in intraperitoneally dosed 3-months old Wistar rat assessed as increase in saccharin self-administration; assay type: functional; conditions: ip, read-out: MED
[12] = tested on: Rattus norvegicus; assay: Anti-depressant-like activity in intraperitoneally dosed 3-months old Wistar rat by Porsolt's forced swim test; assay type: functional; conditions: ip, read-out: MED
[13] = tested on: Rattus norvegicus; assay: Anti-depressant-like activity in intraperitoneally dosed >18-months old Wistar rat by Porsolt's forced swim test; assay type: functional; conditions: ip, read-out: MED
[14] = tested on: Rattus norvegicus; assay: Anxiolytic activity in intraperitoneally dosed 3-months old Wistar rat by Vogel's conflict drinking test; assay type: functional; conditions: ip, read-out: MED
[15] = tested on: Rattus norvegicus; assay: Anxiolytic activity in intraperitoneally dosed 3-months old Wistar rat by open-field test; assay type: functional; conditions: ip, read-out: MED
[16] = tested on: Rattus norvegicus; assay: Anxiolytic activity in intraperitoneally dosed >18-months old Wistar rat by open-field test; assay type: functional; conditions: ip, read-out: MED
[17] = tested on: Rattus norvegicus; assay: Procognitive effect in intraperitoneally dosed 3-months old Wistar rat assessed as extinction of non-reinforced responding for sweet reward; assay type: functional; conditions: ip, read-out: MED
[18] = tested on: Rattus norvegicus; assay: Induction of reinforcement of lever pressing in intraperitoneally dosed Wistar rat in absence of sweet reward; assay type: organism-based; conditions: in vivo, ip
[19] = Aqueous solubility in simulated intestinal fluid at 2 x 10^-4 M; assay type: physicochemical
[20] = Aqueous solubility in PBS buffer at pH 7.4 at 2 x 10^-4 M; assay type: physicochemical
[21] = Aqueous solubility in simulated gastric fluid at 2 x 10^-4 M; assay type: physicochemical
[22] = Protein binding in human plasma 1 x 10^-5 M; assay type: ADME, cell-free; conditions: read-out: PPB
[23] = Permeability across apical to basolateral side in human Caco2 cells at 1 x 10^-5 M; assay type: ADME, cell-based; conditions: Caco-2, read-out: permeability
[24] = Permeability across basolateral to apical side in human Caco2 cells at 1 x 10^-5 M; assay type: ADME, cell-based; conditions: Caco-2, read-out: permeability
[25] = Metabolic stability in human liver microsomes assessed as compound remaining after 15 mins at 1 x 10^-7 M (reference value: 100%); assay type: ADME; conditions: read-out: Stability
[26] = Metabolic stability in human liver microsomes assessed as compound remaining after 30 mins at 1 x 10^-7 M (reference value: 100%); assay type: ADME; conditions: read-out: Stability
[27] = Metabolic stability in human liver microsomes assessed as compound remaining after 45 mins at 1 x 10^-7 M (reference value: 100%); assay type: ADME; conditions: read-out: Stability
[28] = Metabolic stability in human liver microsomes assessed as compound remaining after 60 mins at 1 x 10^-7 M (reference value: 100%); assay type: ADME; conditions: read-out: Stability
[29] = Half life in human liver microsomes at 1 x 10^-7 M; assay type: ADME
[30] = Intrinsic clearance in human liver microsomes at 1 x 10^-7 M; assay type: ADME; conditions: read-out: CLH
[31] = molecular target: T6, 5-hydroxytryptamine receptor 6 (Homo sapiens, UniProt P50406); assay: Antagonist activity against human recombinant 5-HT6 receptor expressed in CHOK1 cells assessed as reduction in serotonin-induced increase in intracellular Ca2+ levels by aequorin based radiometric and luminescence plate counting method; assay type: functional, cell-based; conditions: CHO-K1
[32] = molecular target: T7, D(2) dopamine receptor (Homo sapiens, UniProt P14416); assay: Agonist activity at human recombinant dopmaine D2L receptor expressed in CHOK1 cells assessed as intracellular Ca2+ levels by aequorin based radiometric and luminescence plate counting method; assay type: functional, cell-based, CHO-K1
[33] = molecular target: T3, D(3) dopamine receptor; assay: Agonist activity at human recombinant dopmaine D3 receptor expressed in CHOK1 cells assessed as effect on cAMP levels; assay type: functional, cell-based, CHO-K1
[34] = molecular target: 5-hydroxytryptamine receptor 2C (Homo sapiens) (UniProt P28335); assay: Displacement of [3H]mesulergine from human 5-HT2C receptor expressed in HEK-293 cells at 1 uM; assay type: cell-based; conditions: HEK293
[35] = molecular target: T8, Muscarinic acetylcholine receptor M1 (Homo sapiens) (UniProt P11229); assay: Displacement of [3H]pirenzepine from human muscarinic M1 receptor expressed in CHO cells at 1 uM; assay type: cell-based
T8 sequence (whole entry): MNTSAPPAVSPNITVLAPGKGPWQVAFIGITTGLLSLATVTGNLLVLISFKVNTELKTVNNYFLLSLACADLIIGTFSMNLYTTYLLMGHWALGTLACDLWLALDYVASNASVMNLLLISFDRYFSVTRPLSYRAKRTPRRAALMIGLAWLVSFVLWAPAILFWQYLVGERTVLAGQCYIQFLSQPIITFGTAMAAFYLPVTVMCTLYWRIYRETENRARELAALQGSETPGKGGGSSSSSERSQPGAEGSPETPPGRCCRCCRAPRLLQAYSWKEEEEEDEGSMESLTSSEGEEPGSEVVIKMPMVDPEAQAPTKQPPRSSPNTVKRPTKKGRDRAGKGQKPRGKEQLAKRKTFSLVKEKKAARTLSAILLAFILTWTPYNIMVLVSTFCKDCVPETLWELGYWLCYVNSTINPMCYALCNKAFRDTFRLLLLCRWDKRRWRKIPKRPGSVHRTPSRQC

[36] = molecular target: Voltage-gated inwardly rectifying potassium channel KCNH2 (Homo sapiens, UniProt Q12809)
[37] = molecular target: T3, D(3) dopamine receptor; conditions: CHO, 1 uM
[38] = molecular target: 5-hydroxytryptamine receptor 1A (Homo sapiens) (UniProt P08908); conditions: HEK293, 1 uM
[39] = molecular target: T2, 5-hydroxytryptamine receptor 2A; conditions: HEK293, 1 uM
[40] = molecular target: Alpha-1A adrenergic receptor (Homo sapiens) (UniProt P35348); conditions: CHO, 1 uM
[41] = molecular target: T6, 5-hydroxytryptamine receptor 6; assay: biochemical
[42] = molecular target: T7, D(2) dopamine receptor; assay: biochemical
[43] = molecular target: T7, D(2) dopamine receptor; assay: biochemical; remark: listed apart in the source
[44] = molecular target: T5, 5-hydroxytryptamine receptor 7; assay: biochemical
[45] = molecular target: 5-hydroxytryptamine receptor 1A (Homo sapiens, UniProt P08908); assay: biochemical
[46] = molecular target: 5-hydroxytryptamine receptor 2C (Homo sapiens, UniProt P28335); assay: biochemical
[47] = molecular target: D(1A) dopamine receptor (Homo sapiens, UniProt P21728); assay: biochemical
[48] = molecular target: Alpha-1A adrenergic receptor (Homo sapiens, UniProt P35348); assay: biochemical
[49] = molecular target: Alpha-2C adrenergic receptor (Homo sapiens, UniProt P18825); assay: biochemical
[50] = molecular target: T1, Sodium-dependent serotonin transporter; assay: biochemical
Target sequence in this assay (P31645 whole entry): as the sequence (P31645 whole entry, looked up) above

T3 sequence (P35462 whole entry): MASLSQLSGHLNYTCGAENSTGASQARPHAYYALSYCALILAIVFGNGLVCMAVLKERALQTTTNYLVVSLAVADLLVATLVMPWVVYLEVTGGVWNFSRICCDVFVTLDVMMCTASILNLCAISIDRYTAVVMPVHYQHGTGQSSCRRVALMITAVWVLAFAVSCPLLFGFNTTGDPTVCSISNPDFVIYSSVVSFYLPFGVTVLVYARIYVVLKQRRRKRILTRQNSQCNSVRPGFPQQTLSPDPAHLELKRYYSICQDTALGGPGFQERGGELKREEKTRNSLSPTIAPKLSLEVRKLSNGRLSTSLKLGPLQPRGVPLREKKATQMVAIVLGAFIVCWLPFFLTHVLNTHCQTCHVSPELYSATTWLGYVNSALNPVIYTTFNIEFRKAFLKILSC
T7 sequence (P14416 whole entry): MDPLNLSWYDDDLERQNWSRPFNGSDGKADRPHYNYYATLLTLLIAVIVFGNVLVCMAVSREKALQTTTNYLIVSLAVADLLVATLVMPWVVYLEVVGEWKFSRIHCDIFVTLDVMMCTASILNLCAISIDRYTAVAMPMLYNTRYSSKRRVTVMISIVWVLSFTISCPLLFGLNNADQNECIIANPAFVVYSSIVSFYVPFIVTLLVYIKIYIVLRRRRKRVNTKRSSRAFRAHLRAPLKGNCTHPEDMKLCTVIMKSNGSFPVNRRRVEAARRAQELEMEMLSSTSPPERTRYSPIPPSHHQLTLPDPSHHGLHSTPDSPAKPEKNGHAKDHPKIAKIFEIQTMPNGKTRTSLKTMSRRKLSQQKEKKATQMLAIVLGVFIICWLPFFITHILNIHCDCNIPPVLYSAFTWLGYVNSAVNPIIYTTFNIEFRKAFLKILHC
T6 sequence (P50406 whole entry): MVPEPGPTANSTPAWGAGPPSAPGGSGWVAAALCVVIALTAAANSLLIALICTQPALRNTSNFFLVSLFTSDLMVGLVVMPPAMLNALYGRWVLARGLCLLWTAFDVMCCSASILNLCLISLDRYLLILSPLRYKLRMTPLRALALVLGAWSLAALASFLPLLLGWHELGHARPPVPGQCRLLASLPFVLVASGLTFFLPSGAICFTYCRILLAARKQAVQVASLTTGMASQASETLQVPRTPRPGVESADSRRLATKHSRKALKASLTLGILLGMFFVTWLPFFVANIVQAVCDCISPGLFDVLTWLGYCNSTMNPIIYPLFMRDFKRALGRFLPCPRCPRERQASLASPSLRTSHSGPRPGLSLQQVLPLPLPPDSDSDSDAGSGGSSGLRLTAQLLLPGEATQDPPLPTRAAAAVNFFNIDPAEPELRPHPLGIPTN
T5 sequence (P34969 whole entry): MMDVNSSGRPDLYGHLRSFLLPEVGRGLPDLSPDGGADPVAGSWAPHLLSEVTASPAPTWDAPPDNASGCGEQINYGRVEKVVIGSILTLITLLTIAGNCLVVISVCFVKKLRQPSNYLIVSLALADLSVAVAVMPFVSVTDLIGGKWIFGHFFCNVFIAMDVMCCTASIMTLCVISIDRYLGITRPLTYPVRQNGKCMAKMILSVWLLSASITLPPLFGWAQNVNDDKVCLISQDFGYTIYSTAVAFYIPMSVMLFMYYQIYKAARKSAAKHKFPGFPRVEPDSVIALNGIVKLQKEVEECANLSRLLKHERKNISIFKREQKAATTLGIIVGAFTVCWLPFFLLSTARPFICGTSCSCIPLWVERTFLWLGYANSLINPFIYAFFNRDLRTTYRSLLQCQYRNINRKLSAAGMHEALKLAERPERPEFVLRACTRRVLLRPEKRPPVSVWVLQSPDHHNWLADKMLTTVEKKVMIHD
T2 sequence (P28223 whole entry): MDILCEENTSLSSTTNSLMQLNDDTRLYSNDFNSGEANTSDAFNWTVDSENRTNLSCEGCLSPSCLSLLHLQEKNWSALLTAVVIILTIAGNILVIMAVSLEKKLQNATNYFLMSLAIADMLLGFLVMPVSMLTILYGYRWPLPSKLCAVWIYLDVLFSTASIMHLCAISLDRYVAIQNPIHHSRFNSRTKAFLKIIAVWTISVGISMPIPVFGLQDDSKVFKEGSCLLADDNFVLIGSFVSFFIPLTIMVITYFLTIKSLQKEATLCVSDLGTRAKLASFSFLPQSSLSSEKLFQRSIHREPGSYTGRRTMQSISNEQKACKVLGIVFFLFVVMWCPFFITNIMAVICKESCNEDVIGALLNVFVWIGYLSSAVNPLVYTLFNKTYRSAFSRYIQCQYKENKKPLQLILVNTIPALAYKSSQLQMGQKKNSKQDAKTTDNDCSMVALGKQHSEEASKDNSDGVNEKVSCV
T4 sequence (P35367 whole entry): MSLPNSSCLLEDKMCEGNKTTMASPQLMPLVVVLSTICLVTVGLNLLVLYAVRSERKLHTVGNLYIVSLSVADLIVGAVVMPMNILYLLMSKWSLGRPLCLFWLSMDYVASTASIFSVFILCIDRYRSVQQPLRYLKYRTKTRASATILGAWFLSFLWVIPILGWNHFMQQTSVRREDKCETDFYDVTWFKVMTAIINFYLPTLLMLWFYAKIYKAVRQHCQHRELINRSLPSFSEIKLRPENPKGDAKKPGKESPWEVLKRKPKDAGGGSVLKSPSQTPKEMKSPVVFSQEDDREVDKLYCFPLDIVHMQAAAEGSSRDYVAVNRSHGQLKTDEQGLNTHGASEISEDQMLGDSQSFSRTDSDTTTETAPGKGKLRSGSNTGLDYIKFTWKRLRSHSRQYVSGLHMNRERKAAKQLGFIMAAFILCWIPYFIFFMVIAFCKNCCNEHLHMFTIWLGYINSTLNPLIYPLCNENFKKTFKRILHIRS
Sequence of Alpha-1A adrenergic receptor (P35348 whole entry): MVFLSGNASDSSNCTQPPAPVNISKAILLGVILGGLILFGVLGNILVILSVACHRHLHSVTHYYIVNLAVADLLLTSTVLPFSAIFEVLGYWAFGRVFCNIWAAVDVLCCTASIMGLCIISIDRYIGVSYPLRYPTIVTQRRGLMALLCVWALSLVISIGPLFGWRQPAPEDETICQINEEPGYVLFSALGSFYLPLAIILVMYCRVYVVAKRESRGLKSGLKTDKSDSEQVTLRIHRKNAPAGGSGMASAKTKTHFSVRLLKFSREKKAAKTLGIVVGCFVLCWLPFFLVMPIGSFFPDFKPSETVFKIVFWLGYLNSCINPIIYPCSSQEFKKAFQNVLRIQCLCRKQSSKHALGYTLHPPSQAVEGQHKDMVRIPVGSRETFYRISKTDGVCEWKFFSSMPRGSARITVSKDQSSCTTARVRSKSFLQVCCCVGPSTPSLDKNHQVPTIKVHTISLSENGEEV
Sequence of Alpha-1A adrenergic receptor (Homo sapiens) (P35348 whole entry): as above
Sequence of Alpha-2C adrenergic receptor (P18825 whole entry): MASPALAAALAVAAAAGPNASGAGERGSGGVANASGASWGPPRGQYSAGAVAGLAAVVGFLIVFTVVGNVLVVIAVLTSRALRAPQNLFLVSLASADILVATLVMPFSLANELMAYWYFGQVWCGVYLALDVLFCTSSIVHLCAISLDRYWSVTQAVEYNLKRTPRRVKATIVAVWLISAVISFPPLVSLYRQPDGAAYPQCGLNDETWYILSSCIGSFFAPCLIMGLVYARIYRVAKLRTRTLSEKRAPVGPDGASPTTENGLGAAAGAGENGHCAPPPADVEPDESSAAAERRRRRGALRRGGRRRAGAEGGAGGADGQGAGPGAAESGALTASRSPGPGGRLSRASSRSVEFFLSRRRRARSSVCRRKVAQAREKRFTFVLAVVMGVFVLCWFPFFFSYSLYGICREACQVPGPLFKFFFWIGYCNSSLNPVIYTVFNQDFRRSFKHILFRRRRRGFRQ

## NC(=O)c1ccccc1OCCCN1CCN(c2cccc3c2ccn3S(=O)(=O)c2ccccc2)CC1
[1]
  inhibition: < 40%
[2]
  pKi: 7.54
[3]
  pKi: 10.00
[4]
  pKi: 8.15
[5]
  pKi: 6.80
[6]
  pKi: < 6.00
[7]
  inhibition: > 90%
[8]
  inhibition: > 50%
[9]
  inhibition: > 50%
[10]
  inhibition: > 50%
[11]
  minimal effective dose: 1 mg/kg
[12]
  minimal effective dose: 1 mg/kg
[13]
  minimal effective dose: 1 mg/kg
[14]
  minimal effective dose: 1 mg/kg
[15]
  minimal effective dose: 1 mg/kg
[16]
  minimal effective dose: 3 mg/kg
[17]
  minimal effective dose: 3 mg/kg
[18]
  Activity: Non-toxic
[19]
  solubility at 200 µM: 97.3 µM (≈ 50.5 µg/mL)
[20]
  solubility at 200 µM: 7 µM (≈ 3.63 µg/mL)
[21]
  solubility at 200 µM: 200 µM (≈ 104 µg/mL)
[22]
  fraction unbound at 10 µM: < 0.01
[23]
  Papp A→B at 10 µM: 0.7 ×10⁻⁶ cm/s
[24]
  Papp B→A at 10 µM: 0.3 ×10⁻⁶ cm/s
[25]
  remaining at 0.25 h, 0.1 µM: 90.6%
[26]
  remaining at 0.5 h, 0.1 µM: 79.3%
[27]
  remaining at 0.75 h, 0.1 µM: 68%
[28]
  remaining at 1 h, 0.1 µM: 57.9%
[29]
  half-life at 0.1 µM: > 1 h
[30]
  microsomal CLint at 0.1 µM: < 116 µL/min/mg
[31]
  Kb: 1.8 nM
[32]
  pEC50: 7.27
[33]
  pEC50: < 6.00
[34]
  inhibition: < 40%
[35]
  inhibition: < 40%
[36]
  pIC50: 5.21
[37]
  inhibition: > 90%
[38]
  inhibition: > 90%
[39]
  inhibition: > 90%
[40]
  inhibition: > 50%
[41]
  pKi: 9.00
[42]
  pKi: 8.20
[43]
  pKi: 8.20
[44]
  pKi: 6.74
[45]
  pKi: 8.17
[46]
  pKi: < 6.00
[47]
  pKi: < 6.00
[48]
  pKi: 7.77
[49]
  pKi: 6.72
[50]
  pKi: < 6.00
